Among the data in the Kinase Knowledgebase extract (Sharma et al. 2016) are IC50 values, retold here.

Broadly, the IC50 is the point on the concentration scale where inhibition reaches its midpoint. A higher IC50 goes with weaker potency.

Where only a bound is given, the exact number is not on record here.

One test concerns the target PIK3CA (human) (UniProt P42336). As to the kind of experiment: Enzyme Assay.
A further test has as its target PIK3CB (Human) (UniProt P42338). Nature of the test: Enzyme Assay.
Another test deals with PIK3CG (human) (UniProt P48736). As to the kind of experiment: Enzyme Assay.
PIK3CG (human), sequence (P48736 whole entry, looked up): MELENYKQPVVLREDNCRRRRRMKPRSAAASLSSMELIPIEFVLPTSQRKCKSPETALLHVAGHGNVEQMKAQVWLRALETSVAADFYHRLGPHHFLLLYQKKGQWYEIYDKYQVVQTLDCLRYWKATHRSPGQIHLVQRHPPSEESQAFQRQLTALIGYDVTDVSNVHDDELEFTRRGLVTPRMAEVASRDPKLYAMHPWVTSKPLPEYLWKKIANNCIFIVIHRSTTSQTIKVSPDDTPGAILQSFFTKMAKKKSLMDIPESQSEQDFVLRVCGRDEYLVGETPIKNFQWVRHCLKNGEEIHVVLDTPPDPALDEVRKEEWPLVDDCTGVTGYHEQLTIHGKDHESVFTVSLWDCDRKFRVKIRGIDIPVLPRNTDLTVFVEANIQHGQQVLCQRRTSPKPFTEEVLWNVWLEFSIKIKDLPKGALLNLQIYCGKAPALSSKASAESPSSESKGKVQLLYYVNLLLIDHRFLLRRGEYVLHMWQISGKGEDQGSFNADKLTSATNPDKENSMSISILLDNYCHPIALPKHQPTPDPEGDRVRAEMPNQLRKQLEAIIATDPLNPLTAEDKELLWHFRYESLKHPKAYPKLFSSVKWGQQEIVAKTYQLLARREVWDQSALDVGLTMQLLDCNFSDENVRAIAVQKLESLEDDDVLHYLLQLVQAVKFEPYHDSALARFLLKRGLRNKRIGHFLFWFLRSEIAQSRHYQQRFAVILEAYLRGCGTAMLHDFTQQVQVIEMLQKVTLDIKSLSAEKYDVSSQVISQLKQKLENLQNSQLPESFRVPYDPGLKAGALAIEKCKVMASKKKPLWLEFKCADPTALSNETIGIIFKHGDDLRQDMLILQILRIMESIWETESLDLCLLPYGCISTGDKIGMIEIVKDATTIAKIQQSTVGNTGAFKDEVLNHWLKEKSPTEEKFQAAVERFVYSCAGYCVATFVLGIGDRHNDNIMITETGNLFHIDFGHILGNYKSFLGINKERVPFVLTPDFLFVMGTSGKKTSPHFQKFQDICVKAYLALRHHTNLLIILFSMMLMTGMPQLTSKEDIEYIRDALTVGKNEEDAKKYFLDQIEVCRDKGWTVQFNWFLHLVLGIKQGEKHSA
Test [1] addresses PIK3CD (Human) (UniProt O00329). As to the kind of experiment: Cell-Based Assay. To be noted: raji.
For test [2] the target is unchanged. Nature of the test: Enzyme Assay.

PIK3CD (Human), sequence (O00329 whole entry, looked up): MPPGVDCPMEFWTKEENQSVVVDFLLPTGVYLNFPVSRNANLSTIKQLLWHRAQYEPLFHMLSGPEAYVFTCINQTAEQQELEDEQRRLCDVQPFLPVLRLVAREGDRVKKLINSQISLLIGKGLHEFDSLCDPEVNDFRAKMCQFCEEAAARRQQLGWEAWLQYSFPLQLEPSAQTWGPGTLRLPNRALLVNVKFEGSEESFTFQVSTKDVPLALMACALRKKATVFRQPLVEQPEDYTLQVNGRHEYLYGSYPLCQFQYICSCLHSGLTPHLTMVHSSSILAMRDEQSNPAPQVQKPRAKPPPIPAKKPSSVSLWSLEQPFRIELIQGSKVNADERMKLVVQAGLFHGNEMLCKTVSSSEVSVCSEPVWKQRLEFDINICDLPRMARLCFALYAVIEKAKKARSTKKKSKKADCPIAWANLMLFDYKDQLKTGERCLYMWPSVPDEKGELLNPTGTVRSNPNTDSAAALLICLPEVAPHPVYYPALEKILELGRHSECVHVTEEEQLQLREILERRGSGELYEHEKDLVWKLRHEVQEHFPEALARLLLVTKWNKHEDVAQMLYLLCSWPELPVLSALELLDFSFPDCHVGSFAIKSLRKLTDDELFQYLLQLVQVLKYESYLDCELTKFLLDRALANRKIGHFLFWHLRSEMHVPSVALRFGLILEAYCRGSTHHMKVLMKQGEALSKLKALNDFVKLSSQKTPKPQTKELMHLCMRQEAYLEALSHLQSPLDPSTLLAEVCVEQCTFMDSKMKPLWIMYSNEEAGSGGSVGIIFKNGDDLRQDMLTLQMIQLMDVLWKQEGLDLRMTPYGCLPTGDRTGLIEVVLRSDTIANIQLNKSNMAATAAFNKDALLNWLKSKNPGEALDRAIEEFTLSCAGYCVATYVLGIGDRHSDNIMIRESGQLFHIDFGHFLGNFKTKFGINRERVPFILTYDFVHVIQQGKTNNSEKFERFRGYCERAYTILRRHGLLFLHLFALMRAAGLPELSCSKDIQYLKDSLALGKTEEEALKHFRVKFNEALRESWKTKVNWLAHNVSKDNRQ
PIK3CA (human), sequence (P42336 whole entry, looked up): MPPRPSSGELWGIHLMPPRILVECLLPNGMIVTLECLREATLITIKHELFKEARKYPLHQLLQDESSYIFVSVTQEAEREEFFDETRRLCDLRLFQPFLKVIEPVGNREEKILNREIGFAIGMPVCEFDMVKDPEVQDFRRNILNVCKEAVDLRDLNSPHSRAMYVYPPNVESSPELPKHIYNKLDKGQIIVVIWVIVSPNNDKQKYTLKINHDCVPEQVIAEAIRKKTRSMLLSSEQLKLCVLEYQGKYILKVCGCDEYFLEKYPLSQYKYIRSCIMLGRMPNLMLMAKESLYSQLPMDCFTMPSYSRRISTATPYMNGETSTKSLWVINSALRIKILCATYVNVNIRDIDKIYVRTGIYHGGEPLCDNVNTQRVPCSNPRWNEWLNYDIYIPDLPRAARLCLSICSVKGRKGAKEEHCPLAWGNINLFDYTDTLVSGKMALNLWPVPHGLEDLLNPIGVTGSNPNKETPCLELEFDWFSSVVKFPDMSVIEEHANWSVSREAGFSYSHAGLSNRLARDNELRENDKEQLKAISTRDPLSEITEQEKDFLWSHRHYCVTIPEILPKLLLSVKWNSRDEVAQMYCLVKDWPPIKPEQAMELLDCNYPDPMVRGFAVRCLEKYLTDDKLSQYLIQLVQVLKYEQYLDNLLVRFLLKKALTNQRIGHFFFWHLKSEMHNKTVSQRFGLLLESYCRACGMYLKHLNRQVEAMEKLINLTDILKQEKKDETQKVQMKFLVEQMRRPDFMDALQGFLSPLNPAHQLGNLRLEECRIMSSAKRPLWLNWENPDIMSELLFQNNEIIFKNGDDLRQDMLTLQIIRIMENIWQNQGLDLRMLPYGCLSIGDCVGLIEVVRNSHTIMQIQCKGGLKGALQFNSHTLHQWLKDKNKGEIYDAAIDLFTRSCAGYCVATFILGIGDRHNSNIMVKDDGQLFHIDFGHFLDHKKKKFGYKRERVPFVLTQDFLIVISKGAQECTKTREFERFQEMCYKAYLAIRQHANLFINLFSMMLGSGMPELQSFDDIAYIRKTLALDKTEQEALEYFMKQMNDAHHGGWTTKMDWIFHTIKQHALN
PIK3CB (Human), sequence (P42338 whole entry, looked up): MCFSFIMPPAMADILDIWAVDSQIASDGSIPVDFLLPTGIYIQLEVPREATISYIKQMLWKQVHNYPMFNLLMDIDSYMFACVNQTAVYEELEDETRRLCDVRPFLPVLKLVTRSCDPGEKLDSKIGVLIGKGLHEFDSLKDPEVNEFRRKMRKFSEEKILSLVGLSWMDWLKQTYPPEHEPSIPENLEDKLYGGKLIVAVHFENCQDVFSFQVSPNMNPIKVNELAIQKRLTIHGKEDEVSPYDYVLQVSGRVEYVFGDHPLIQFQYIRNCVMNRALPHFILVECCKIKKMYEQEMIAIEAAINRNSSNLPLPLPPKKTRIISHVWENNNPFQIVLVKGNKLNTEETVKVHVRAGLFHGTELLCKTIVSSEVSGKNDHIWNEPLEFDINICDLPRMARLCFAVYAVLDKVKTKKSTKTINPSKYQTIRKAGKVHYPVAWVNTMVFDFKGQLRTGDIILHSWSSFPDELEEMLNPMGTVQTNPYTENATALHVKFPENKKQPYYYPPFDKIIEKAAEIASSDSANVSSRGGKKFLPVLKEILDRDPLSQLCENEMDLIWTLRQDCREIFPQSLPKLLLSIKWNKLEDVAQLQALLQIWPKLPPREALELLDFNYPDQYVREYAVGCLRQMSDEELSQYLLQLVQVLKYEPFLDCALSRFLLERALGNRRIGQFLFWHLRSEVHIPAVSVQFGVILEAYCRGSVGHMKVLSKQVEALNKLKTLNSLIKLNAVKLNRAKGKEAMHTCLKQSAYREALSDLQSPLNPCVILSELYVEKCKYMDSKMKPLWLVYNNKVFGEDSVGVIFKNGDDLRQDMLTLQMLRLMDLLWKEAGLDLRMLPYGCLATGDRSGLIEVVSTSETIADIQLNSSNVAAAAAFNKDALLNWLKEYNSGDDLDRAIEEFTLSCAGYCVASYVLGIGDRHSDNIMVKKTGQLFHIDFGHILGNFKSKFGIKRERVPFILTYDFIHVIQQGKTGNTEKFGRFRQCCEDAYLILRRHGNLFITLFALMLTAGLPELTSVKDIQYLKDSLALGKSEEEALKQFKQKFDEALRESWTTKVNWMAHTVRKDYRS

Turning to `CNCc1cccc2cc([C@H](C)NC(=O)c3c(N)nn4cccnc34)n(-c3ccccc3)c(=O)c12`, the 50% inhibitory concentration (IC50) at PIK3CA (human), against PIK3CB (Human) and against PIK3CG (human) was at least 10000 nM in each case.

For the molecule `C[C@H](NC(=O)c1c(N)nn2cccnc12)c1cc2cccc(-c3cnn(C)c3)c2c(=O)n1-c1ccccc1`, the IC50 was below 100 nM against PIK3CD (Human) [1], at least 10000 nM on PIK3CA (human), at least 10000 nM on PIK3CB (Human) and 100 to 1000 nM at PIK3CG (human).

In the case of `C[C@H](NC(=O)c1nc(-c2cccc(S(=O)(=O)N(C)C)c2)cnc1N)c1cc2cccc(Cl)c2c(=O)n1-c1ccccc1`, the IC50 at PIK3CD (Human) [1] was 100 to 1000 nM; on PIK3CA (human), at least 10000 nM.

As to `CC(C)Oc1cc(-c2cccc3cc([C@H](C)NC(=O)c4c(N)nn5cccnc45)n(-c4ccccc4)c(=O)c23)ccn1`, the figures for the IC50 against PIK3CD (Human) [1], against PIK3CA (human) and against PIK3CG (human) were below 100 nM, at least 10000 nM and 100 to 1000 nM, respectively.

As to `COc1cccc2cc([C@H](C)NC(=O)c3c(N)nn4cccnc34)n(-c3ccccc3)c(=O)c12`, the half-maximal inhibitory concentration (IC50) on PIK3CD (Human) [1] is 100 to 1000 nM; on PIK3CA (human) it was at least 10000 nM; against PIK3CB (Human), at least 10000 nM.

For `CC(C)Oc1cc(-c2cccc3nc([C@H](C)NC(=O)c4c(N)nn5cccnc45)n(-c4ccccc4)c(=O)c23)ccn1`, the IC50 is below 100 nM on PIK3CD (Human) [1] and at least 10000 nM against PIK3CA (human).

`C[C@H](NC(=O)c1c(N)oc2cccnc12)c1cc2cccc(Cl)c2c(=O)n1-c1ccccc1` registered a concentration for half-maximal inhibition (IC50) on PIK3CA (human) of at least 10000 nM.

Regarding `COc1cccc2c(C)c([C@H](C)NC(=O)c3c(N)nn4cccnc34)n(-c3ccccc3)c(=O)c12`, the IC50 against PIK3CA (human) was at least 10000 nM; against PIK3CB (Human), at least 10000 nM; at PIK3CG (human) it was 100 to 1000 nM.

On to `COc1ccc(-c2cccc3cc([C@H](C)NC(=O)c4c(N)nn5cccnc45)n(-c4ccccc4)c(=O)c23)cn1`, for which the concentration for half-maximal inhibition (IC50) at PIK3CD (Human) [1] is below 100 nM; at PIK3CA (human) it was at least 10000 nM; against PIK3CB (Human), at least 10000 nM; at PIK3CG (human) it was 100 to 1000 nM.

As to `C[C@H](NC(=O)c1nc(-c2cccc(S(=O)(=O)N3CCCC3)c2)cnc1N)c1cc2cccc(Cl)c2c(=O)n1-c1ccccc1`, the IC50 on PIK3CA (human) is at least 10000 nM.

In the case of `C[C@H](NC(=O)c1cnc2cccnn12)c1cc2cccc(Cl)c2c(=O)n1-c1ccccc1`, the IC50 on PIK3CD (Human) [1] and at PIK3CD (Human) [2] was 100 to 1000 nM in each case.

As to `C[C@H](NC(=O)c1c(N)nn2cccnc12)c1cc2cccc(CNC[C@@H]3CCCO3)c2c(=O)n1-c1ccccc1`, the IC50 on PIK3CA (human) and against PIK3CB (Human) was at least 10000 nM in each case.

With `Cc1cnc(N)c(C(=O)N[C@@H](C)c2cc3cccc(Cl)c3c(=O)n2-c2ccccc2)n1`, the IC50 was 100 to 1000 nM at PIK3CD (Human) [1] and at least 10000 nM against PIK3CA (human).

In the case of `C[C@H](NC(=O)c1nccnc1N)c1cc2cccc(-c3cnn(C)c3)c2c(=O)n1-c1ccccc1`, the concentration for half-maximal inhibition (IC50) on PIK3CD (Human) [1] was below 100 nM; on PIK3CA (human), at least 10000 nM; against PIK3CB (Human), at least 10000 nM; against PIK3CG (human) it was 100 to 1000 nM.

As to `C[C@H](NC(=O)c1c(N)nn2cccnc12)c1cc2cccc(/C=N\O)c2c(=O)n1-c1ccccc1`, the IC50 is at least 10000 nM against PIK3CA (human), at least 10000 nM against PIK3CB (Human) and 100 to 1000 nM against PIK3CG (human).

For the molecule `Cc1cnc(C(=O)N[C@@H](C)c2c(Br)c3cccc(Cl)c3c(=O)n2-c2ccccc2)c(N)n1`, the half-maximal inhibitory concentration (IC50) against PIK3CA (human) and against PIK3CB (Human) was at least 10000 nM each time.

For the molecule `COc1cccc2c(Br)c([C@H](C)NC(=O)c3c(N)nn4cccnc34)n(-c3ccccc3)c(=O)c12`, the figures for the concentration for half-maximal inhibition (IC50) against PIK3CA (human), against PIK3CB (Human) and against PIK3CG (human) were at least 10000 nM, at least 10000 nM and 100 to 1000 nM, respectively.

`COc1ccc(-c2cnc(N)c(C(=O)N[C@@H](C)c3cc4cccc(Cl)c4c(=O)n3-c3ccccc3)n2)cc1F`: the concentration for half-maximal inhibition (IC50) at PIK3CA (human) and against PIK3CB (Human) was at least 10000 nM throughout.

Turning to `COc1cc(-c2cccc3cc([C@H](C)NC(=O)c4ncc(C)nc4N)n(-c4ccccc4)c(=O)c23)ccn1`, the IC50 is 100 to 1000 nM against PIK3CD (Human) [1], at least 10000 nM against PIK3CA (human) and at least 10000 nM against PIK3CB (Human).

Turning to `COc1ncc(-c2cccc3cc([C@H](C)NC(=O)c4c(N)nn5cccnc45)n(-c4ccccc4)c(=O)c23)s1`, the IC50 against PIK3CA (human) was at least 10000 nM; against PIK3CB (Human), at least 10000 nM; at PIK3CG (human), 100 to 1000 nM.

`C[C@H](NC(=O)c1c(N)nn2cccnc12)c1cc2cccc(C#CCNC(=O)C3CCC(=O)C3)c2c(=O)n1-c1ccccc1` (stereo partly specified): the half-inhibitory concentration (IC50) against PIK3CD (Human) [1] was below 100 nM; at PIK3CA (human) it was 100 to 1000 nM; against PIK3CG (human) it was below 100 nM.

Regarding `C[C@H](NC(=O)c1c(N)nn2cccnc12)c1cc2cccc(C#N)c2c(=O)n1-c1ccccc1`, the values for the IC50 on PIK3CD (Human) [1], on PIK3CA (human) and at PIK3CG (human) were below 100 nM, at least 10000 nM and 100 to 1000 nM, respectively.

Take `C[C@H](NC(=O)c1cnn2cccnc12)c1cc2cccc(Cl)c2c(=O)n1-c1ccccc1`: the IC50 against PIK3CD (Human) [1] was 100 to 1000 nM; at PIK3CA (human), at least 10000 nM.

For the molecule `COc1cc(-c2cccc3cc([C@H](C)NC(=O)c4c(N)nn5cccnc45)n(-c4cccc(F)c4)c(=O)c23)ccn1`, the concentration for half-maximal inhibition (IC50) against PIK3CD (Human) [1] was 100 to 1000 nM; on PIK3CB (Human) it was at least 10000 nM; on PIK3CG (human), 100 to 1000 nM.

Turning to `CC(C)Oc1ccc(-c2cnc(N)c(C(=O)N[C@@H](C)c3cc4cccc(Cl)c4c(=O)n3-c3ccccc3)n2)cn1`, the 50% inhibitory concentration (IC50) is 100 to 1000 nM against PIK3CD (Human) [1], at least 10000 nM against PIK3CA (human) and at least 10000 nM against PIK3CB (Human).
